Measured values published in paper PMC12288460, “The Agrobacterium fabrum efflux pump PecM is produced in response to the plant exudate 4-hydroxybenzaldehyde to avoid disruption of central metabolism” (Journal of Bacteriology, 2025).

Molecular target: T1, PecS (Agrobacterium fabrum, UniProt Q7D1T4)
T1 construct: full length, N-terminal His6-tag kept (pET100), E. coli BL21(DE3)pLysS; 18,923 Da tagged; dimer by known biology of MarR family
Assay: DNase I footprinting of pecS-pecM DNA, loss of PecS protection
Conditions: 86 nM PecS, 250 mM Tris pH 8.0, 100 mM NaCl, room temperature, relief of DNA binding

T1 sequence (Q7D1T4 entry or part of it): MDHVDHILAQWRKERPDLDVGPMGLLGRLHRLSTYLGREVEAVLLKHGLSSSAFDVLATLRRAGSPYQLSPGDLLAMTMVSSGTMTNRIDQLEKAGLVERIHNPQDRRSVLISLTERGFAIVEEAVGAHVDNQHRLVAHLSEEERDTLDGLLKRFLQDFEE

SMILES | DNase I footprinting of pecS-pecM DNA, loss of PecS protection (2.5 mM urate (dissolved in 0.4 M NaOH)) | DNase I footprinting of pecS-pecM DNA, loss of PecS protection (10 mM xanthine (dissolved in 0.4 M NaOH))
O=c1[nH]c(=O)c2[nH]c(=O)[nH]c2[nH]1 [urate] | This result indicates a direct interaction between these purines and PecS | –
O=c1[nH]c(=O)c2[nH]cnc2[nH]1 [xanthine] | – | This result indicates a direct interaction between these purines and PecS
